Measured values as given in patent US7511047B2, “Kinase inhibitors” (Cytopia Research Pty Ltd, priority 2002, dated 2009).

How the values were obtained:
Type in all cases: biochemical
hck = hck (Homo sapiens, UniProt P08631); experiment: hck kinase assay (ELISA or Alphascreen); conditions: capacity to inhibit 50% of activity at 50 μM; read-out: hck inhibitory activity
Experimental: (§1) For screening purposes, compounds were diluted in 96 well plates at a concentration of 20 μM. Plates were warmed at 37° C. for 30 minutes before assay.
(§2) Kinase assays were performed either in a 96 well capture-based ELISA assay or in 384 well Optiplates (Packard) using an Alphascreen Protein Tyrosine Kinase kit. In either casse using approximately 1.5 μg of affinity purified PTK domain in the presence of 50 mM HEPES, pH 7.5, 10 mM MgCl2, 150 mM NaCl and 10 μM-1 mM ATP. The biotinylated substrate biotin-EGPWLEEEEEAYGWMDF-NH2 (SEQ ID NO:9) (final concentration 5 μM) was used as substrate. In the ELISA assay tyrosine phosphorylation was quantitated following transfer to an avidin coated ELISA plate using peroxidase-linked anti-phospho-tyrosine antibody PY20. In the Alphascreen assay, Alphascreen phosphotyrosine acceptor beads followed by streptavidin donor beads were added under subdued light. The ELISA plates were read on a BMG Fluorostar, the Alphascreen plates were read on a Packard Fusion Alpha. Inhibitors were added to the assays fifteen minutes prior to the addition of ATP. Inhibitors were added in aqueous DMSO, with DMSO concentrations never exceeding 1%.

Jak2 = target: T1, Jak2 (Homo sapiens, UniProt O60674); experiment: JAK2 kinase domain assay (ELISA or Alphascreen); conditions: capacity to inhibit 50% of activity at 50 μM; read-out: Jak2 inhibitory activity
T1 construct: The kinase domain of humanJAK2 was amplified from U937mRNA; His tag (from pFastBac HTc vector) (N); made in house; host or cells: baculovirus; Sf9 insect cells for virus, High Five cells for large-scale production
Experimental: as §1
(§3) • JAK1 PCR products were cloned into the pFastBac HTb expression vector (Gibco) via the Xho I and Kpn I sites. The JAK1 plasmid was then transformed into competent DH10Bac cells (Gibco), and the recombinant baculovirus produced prepared for transfection into Sf9 insect cells. JAK2 • The kinase domain of humanJAK2 was amplified from U937mRNA using the polymerase chain reaction with the following primers:
• JAK2 PCR products were cloned into the pFastBac HTc expression vector (Gibco) via the Sal I and Not I sites. The JAK2 plasmid was then transformed into competent DH10Bac cells (Gibco), and the recombinant baculovirus produced prepared for transfection into Sf9 insect cells. JAK3 • The kinase domain of humanJAK3 was amplified from U937mRNA using the polymerase chain reaction with the following primers: […]
(§4) Baculovirus preparations from each of the JAK family members were infected into five litres of High Five cells (Invitrogen) grown in High Five serum free medium (Invitrogen) to a cell density of approximately 1-2×10^6 cells/ml. Cells are infected with virus at a MOI of 0.8-3.0. Cells were harvested and lysed. JAK kinase domains were purified by affinity chromatography on a Probond (Invitrogen) nickel chelate affinity column.
as §2

Jak3 = target: T2, Jak3 (Homo sapiens, UniProt P52333); experiment: JAK3 kinase domain assay (ELISA or Alphascreen); conditions: capacity to inhibit 50% of activity at 50 μM; read-out: Jak3 inhibitory activity
T2 construct: The kinase domain of humanJAK3 was amplified from U937mRNA; His tag (from pFastBac HTb vector) (N); made in house; host or cells: baculovirus; Sf9 insect cells for virus, High Five cells for large-scale production
Experimental: as §1
• JAK2 PCR products were cloned into the pFastBac HTc expression vector (Gibco) via the Sal I and Not I sites. The JAK2 plasmid was then transformed into competent DH10Bac cells (Gibco), and the recombinant baculovirus produced prepared for transfection into Sf9 insect cells. JAK3 • The kinase domain of humanJAK3 was amplified from U937mRNA using the polymerase chain reaction with the following primers:
as §3, with “JAK3” for “JAK1”, “TYK2” for “JAK2”, “humanTYK2” for “humanJAK2”, “A549 mRNA” for “U937mRNA”, “primers: […]” for “primers:”
as §4, §2

abl = target: T3, abl (Homo sapiens, UniProt P00519); experiment: abl kinase assay (ELISA or Alphascreen); conditions: capacity to inhibit 50% of activity at 50 μM; read-out: abl inhibitory activity
T3 sequence (P00519 242-493 limits assumed): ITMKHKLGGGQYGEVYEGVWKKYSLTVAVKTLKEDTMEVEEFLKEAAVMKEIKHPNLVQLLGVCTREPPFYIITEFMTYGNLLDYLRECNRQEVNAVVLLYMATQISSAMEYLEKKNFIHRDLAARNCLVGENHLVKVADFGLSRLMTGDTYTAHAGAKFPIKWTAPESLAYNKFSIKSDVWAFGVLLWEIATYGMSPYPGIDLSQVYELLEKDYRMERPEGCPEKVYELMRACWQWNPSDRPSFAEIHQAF
Experimental: as §1, §2

kdr = kdr (Homo sapiens, UniProt P35968); experiment: kdr kinase assay (ELISA or Alphascreen); conditions: capacity to inhibit 50% of activity at 50 μM; read-out: kdr inhibitory activity
Experimental: as §1, §2

T2 sequence (P52333 822-1111 limits assumed): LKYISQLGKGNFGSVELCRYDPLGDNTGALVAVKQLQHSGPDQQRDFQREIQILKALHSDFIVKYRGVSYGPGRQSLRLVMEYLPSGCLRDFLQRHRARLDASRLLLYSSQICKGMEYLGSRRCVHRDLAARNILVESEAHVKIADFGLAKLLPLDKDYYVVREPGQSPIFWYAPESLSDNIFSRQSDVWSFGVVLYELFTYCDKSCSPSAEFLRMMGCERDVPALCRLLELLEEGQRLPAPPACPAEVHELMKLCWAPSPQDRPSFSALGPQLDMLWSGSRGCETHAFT
T1 sequence (O60674 849-1124 limits assumed): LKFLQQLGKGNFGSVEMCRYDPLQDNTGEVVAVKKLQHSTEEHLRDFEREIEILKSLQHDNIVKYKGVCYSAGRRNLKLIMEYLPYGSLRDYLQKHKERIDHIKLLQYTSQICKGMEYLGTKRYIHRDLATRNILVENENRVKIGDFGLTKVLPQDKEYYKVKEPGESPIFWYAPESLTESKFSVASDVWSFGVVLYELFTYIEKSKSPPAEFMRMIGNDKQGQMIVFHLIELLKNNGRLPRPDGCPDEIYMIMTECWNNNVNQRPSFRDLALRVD
kdr, sequence (P35968 834-1162 limits assumed, species assumed): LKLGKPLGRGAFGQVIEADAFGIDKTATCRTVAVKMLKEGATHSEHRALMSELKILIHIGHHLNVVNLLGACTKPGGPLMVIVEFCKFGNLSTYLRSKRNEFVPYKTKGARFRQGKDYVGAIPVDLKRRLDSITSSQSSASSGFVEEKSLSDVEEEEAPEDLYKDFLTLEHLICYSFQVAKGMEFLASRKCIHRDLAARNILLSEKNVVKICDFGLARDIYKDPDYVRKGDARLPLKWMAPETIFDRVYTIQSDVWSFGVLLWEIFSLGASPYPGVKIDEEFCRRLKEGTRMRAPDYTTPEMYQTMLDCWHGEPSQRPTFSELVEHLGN
hck, sequence (P08631 262-515 limits assumed, species assumed): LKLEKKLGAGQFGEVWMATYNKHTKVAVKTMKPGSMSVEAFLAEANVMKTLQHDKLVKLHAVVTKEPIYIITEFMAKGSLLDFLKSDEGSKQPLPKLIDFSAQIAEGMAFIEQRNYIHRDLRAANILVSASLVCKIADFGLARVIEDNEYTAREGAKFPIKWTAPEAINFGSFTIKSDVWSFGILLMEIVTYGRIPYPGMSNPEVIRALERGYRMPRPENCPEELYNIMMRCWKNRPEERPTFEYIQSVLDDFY

SMILES	inhibition at 50 µM (hck)	inhibition at 50 µM (Jak2)	inhibition at 50 µM (Jak3)	inhibition at 50 µM (abl)	inhibition at 50 µM (kdr)
C[C@H](Nc1cncc(-n2cnc3cc(C(=O)NCCO)ccc32)n1)c1ccccc1	> 50%	> 50%	> 50%	> 50%	> 50%
C[C@H](Nc1cncc(-n2cnc3cc(NC(=O)C4CCCNC4)ccc32)n1)c1ccccc1 (stereo partly shown)	> 50%	> 50%	> 50%	> 50%	> 50%
C[C@H](Nc1cncc(-n2cnc3cc(C(=O)NCCN(C)C)ccc32)n1)c1ccccc1	> 50%	> 50%	< 50%	> 50%	> 50%
C[C@H](Nc1cncc(-n2cnc3cc(NC(=O)C4CCCN4)ccc32)n1)c1ccccc1 (stereo partly shown)	> 50%	> 50%	> 50%	< 50%	> 50%
C[C@H](Nc1cncc(-n2cnc3cc(CN4CCN(C)CC4)ccc32)n1)c1ccccc1	> 50%	< 50%	< 50%	< 50%	> 50%
Cc1cn(-c2cncc(NCc3ccc(F)cc3)n2)cn1	< 50%	> 50%	< 50%	< 50%	< 50%
Fc1ccc(CNc2cncc(-n3cnc4ccccc43)n2)cc1	> 50%	> 50%	< 50%	> 50%	< 50%
C[C@H](Nc1cncc(-n2cnc3cc(NC(=O)[C@@H]4CCCN4C(=O)OC(C)(C)C)ccc32)n1)c1ccccc1	> 50%	> 50%	< 50%	> 50%	> 50%
Cc1nccn1-c1cncc(N[C@H](C)c2ccccc2)n1	> 50%	< 50%	< 50%	< 50%	< 50%
c1cn(-c2cncc(Nc3ccc(N4CCOCC4)cc3)n2)cn1	> 50%	> 50%	< 50%	> 50%	< 50%
c1ccc(CNc2cncc(-n3ccnc3)n2)cc1	> 50%	< 50%	< 50%	> 50%	< 50%
C[C@H](Nc1cncc(-n2cnc3ccc(NC(=O)C4CC4)cc32)n1)c1ccccc1	> 50%	< 50%	< 50%	> 50%	> 50%
C[C@H](Nc1cncc(-n2cnc3cc(C(=O)NCc4ccccc4)ccc32)n1)c1ccccc1	> 50%	< 50%	< 50%	> 50%	> 50%
COCC(=O)Nc1ccc2c(c1)ncn2-c1cncc(N[C@@H](C)c2ccccc2)n1	> 50%	< 50%	< 50%	> 50%	> 50%

Continued, values first:

inhibition at 50 µM (hck)	inhibition at 50 µM (Jak2)	inhibition at 50 µM (Jak3)	inhibition at 50 µM (abl)	inhibition at 50 µM (kdr)	SMILES
> 50%	> 50%	< 50%	> 50%	> 50%	CC(Nc1cncc(-n2cnc3ccccc32)n1)c1ccc(F)cc1 (stereo not shown)
> 50%	< 50%	< 50%	> 50%	> 50%	C[C@H](Nc1cncc(-n2cnc3cc(NC(=O)c4ccccc4)ccc32)n1)c1ccccc1
> 50%	< 50%	< 50%	> 50%	> 50%	C[C@H](Nc1cncc(-n2cnc3cc(C4=NCCO4)ccc32)n1)c1ccccc1
> 50%	> 50%	> 50%	> 50%	> 50%	CC(Nc1cncc(-n2cnc3ccccc32)n1)c1cccnc1 (stereo not shown)
> 50%	> 50%	> 50%	< 50%	> 50%	C[C@H](Nc1cncc(-n2cnc3ccc(CO)cc32)n1)c1ccccc1
> 50%	> 50%	> 50%	> 50%	> 50%	C[C@H](Nc1cncc(-n2cnc3ccncc32)n1)c1ccccc1
> 50%	< 50%	< 50%	> 50%	> 50%	CC(=O)Nc1ccc2c(c1)ncn2-c1cncc(N[C@@H](C)c2ccccc2)n1
> 50%	> 50%	< 50%	< 50%	> 50%	C[C@H](Nc1cncc(-n2cnc3cc(CO)ccc32)n1)c1ccccc1
> 50%	> 50%	< 50%	> 50%	> 50%	C[C@H](Nc1cncc(-n2cnc3cc(-c4ccncc4)ccc32)n1)c1ccccc1
> 50%	> 50%	< 50%	> 50%	> 50%	C[C@@H](Nc1cncc(-n2cnc3ccccc32)n1)c1ccccc1
> 50%	> 50%	< 50%	> 50%	> 50%	CNC(=O)c1ccc2c(c1)ncn2-c1cncc(N[C@@H](C)c2ccccc2)n1
> 50%	> 50%	< 50%	> 50%	> 50%	C[C@H](Nc1cncc(-n2cnc3ccc(NS(C)(=O)=O)cc32)n1)c1ccccc1
> 50%	> 50%	> 50%	> 50%	> 50%	C[C@H](Nc1cncc(-n2cnc3cc(Br)ccc32)n1)c1ccccc1
< 50%	> 50%	> 50%	< 50%	> 50%	C[C@H](Nc1cncc(-n2cnc3ccccc32)n1)c1ccc(-c2cccnc2)cc1
	< 50%	< 50%	> 50%	> 50%	C[C@H](Nc1cncc(-n2cnc3ccccc32)n1)c1ccc(Br)cc1
	< 50%	< 50%	> 50%	> 50%	COc1ccc([C@H](C)Nc2cncc(-n3cnc4ccccc43)n2)cc1
